Source: patent US20210094933A1, “RAPAFUCIN DERIVATIVE COMPOUNDS AND METHODS OF USE THEREOF” (The Johns Hopkins University, priority 2019, published 2021)
Numbered stars: 1 amine (or outer) side, 2 acyl side, 3 side chain; on linkers, the order of the positions; unused ones are H or OH. Bridge positions count the residues as written; N and C are the ends. Square brackets hold non-standard residues; d marks the D form. Peptide text beside a SMILES is read from it. * marks the point of attachment. X3 = COc1ccc(CC[C@H](O[*:2])c2cccc(OCC(=O)[*:1])c2)cc1OC; X2 = CN(CCC=CC(=O)OCC(C)(C)C(=O)C(=O)[*:2])[*:1]; 2Nal = N[C@@H](Cc1ccc2ccccc2c1)C(=O)O; dNMeNle = CCCC[C@@H](NC)C(=O)O; dNMeS = CN[C@H](CO)C(=O)O; dPip = O=C(O)[C@H]1CCCCN1; Sar = CNCC(=O)O; tBu = CC(C)(C)*

Experiments:
Format in all cases: cell-based
[1] = Cell proliferation assay, single concentration, response relative to DMSO; cell line indicated in each table
Description: (§1) Cell Proliferation Assay (Prolif.) Guo et al. (2018) Nat. Chem. 11:254-63. Specific cell lines are indicated in each assay and cultured in complete growth media. Activity is scored according to the IC50 values relative to DMSO control. “Low” indicates an IC50 greater than 600 nM, “Medium” indicates an IC50 between 300 nM and 600 nM “High” indicates an IC50 less than 300 nM. “Rel.Uptake” refers to uptake activity characterization relative to a single concentration assay. “Low” indicates a response greater than 0.6 times the activity relative to DMSO, “Medium” indicates a response between 0.6 and 0.3 times the activity relative to DMSO, “High” indicates a response less than 0.3 times the activity relative to DMSO.

H929 = test: Cell proliferation assay (Prolif.), IC50 relative to DMSO control; settings: H929 cells; for Prolif, H929: IC50 class relative to DMSO control
Description: as §1

[2] = Nucleoside uptake assay, single concentration (Rel.Uptake), response relative to DMSO; cell line indicated in each table; settings: 293 T cells, nucleoside uptake at single concentration
Description: Nucleoside Uptake Assay (uptake). Nuceloside uptake assays were performed with using 3H-Thymidine as described in Guo et al. (2018) Nat. Chem, 11:254-63. Specific cell lines are indicated in each assay and cultured in complete growth media. Activity is scored according to the IC50 values relative to DMSO control. “Low” indicates an IC50 greater than 600 nM, “Medium” indicates an IC50 between 300 nM and 600 nM “High” indicates an IC50 less than 300 nM. “Rel.Uptake” refers to uptake activity characterization relative to a single concentration assay. “Low” indicates a response greater than 0.6 times the activity relative to DMSO, “Medium” indicates a response between 0.6 and 0.3 times the activity relative to DMSO, “High” indicates a response less than 0.3 times the activity relative to DMSO.

Compound | Rel. Prolif., A549 ([1]; A549 cells) | Prolif. H929 (H929; class relative to DMSO control) | Rel. Prolif., NCI-H929 ([1]; NCI-H929 cells) | Prolif, H929 (H929) | Rel. Uptake, 293 T [2]
CCCC[C@@H]1C(=O)N[C@@H](Cc2ccc3ccccc3c2)C(=O)N(C)[C@H](COC(C)(C)C)C(=O)NCC(=O)N(C)CCC=CC(=O)OCC(C)(C)C(=O)C(=O)N2CCCC[C@@H]2C(=O)O[C@@H](CCc2ccc(OC)c(OC)c2)c2cccc(c2)OCC(=O)N(C)CC(=O)N1C [Compound 1] ([Sar][dNMeNle][2Nal][dNMeS](tBu)G[X2][dPip]; linker N-C via X3) | low |  |  |  | 
COc1ccc(CC[C@H]2OC(=O)[C@@H]3CCCCN3C(=O)C(=O)C(C)(C)COC(=O)C=CCCN(C)C(=O)[C@@H](Cc3ccccc3)NC(=O)CN(C)C(=O)[C@@H](Cc3ccccc3)NC(=O)[C@H](Cc3ccc(OC(=O)N4CCOCC4)cc3)N(C)C(=O)COc3cccc2c3F)cc1OC [Compound 867] |  | high | low |  | 
COc1cc(CC[C@H]2OC(=O)[C@@H]3CCCCN3C(=O)C(=O)C(C)(C)COC(=O)C=CCCN(C)C(=O)[C@@H](Cc3ccccc3)NC(=O)CN(C)C(=O)[C@@H](Cc3ccccc3)NC(=O)[C@H](Cc3ccc(O)cc3)N(C)C(=O)COc3cccc2c3)cc(OC)c1OC [Compound 1566] |  |  |  | medium | medium
COc1cc(CC[C@H]2OC(=O)[C@@H]3CCCCN3C(=O)C(=O)C(C)(C)COC(=O)C=CCCN(C)C(=O)[C@@H](Cc3ccccc3)NC(=O)CN(C)C(=O)[C@@H](Cc3ccccc3)NC(=O)[C@H](Cc3ccc(O)cc3)N(C)C(=O)COc3cccc2c3)cc(O)c1OC [Compound 1567] |  |  |  | medium | medium
COc1cc(O)c(CC[C@H]2OC(=O)[C@@H]3CCCCN3C(=O)C(=O)C(C)(C)COC(=O)C=CCCN(C)C(=O)[C@@H](Cc3ccccc3)NC(=O)CN(C)C(=O)[C@@H](Cc3ccccc3)NC(=O)[C@H](Cc3ccc(O)cc3)N(C)C(=O)COc3cccc2c3)cc1OC [Compound 1568] |  |  |  | low | low
COc1cc(CC[C@H]2OC(=O)[C@@H]3CCCCN3C(=O)C(=O)C(C)(C)COC(=O)C=CCCN(C)C(=O)[C@@H](Cc3ccccc3)NC(=O)CN(C)C(=O)[C@@H](Cc3ccccc3)NC(=O)[C@H](Cc3ccc(O)cc3)N(C)C(=O)COc3cccc2c3)cc(F)c1OC [Compound 1569] |  |  |  | low | low
COc1cc(F)c(CC[C@H]2OC(=O)[C@@H]3CCCCN3C(=O)C(=O)C(C)(C)COC(=O)C=CCCN(C)C(=O)[C@@H](Cc3ccccc3)NC(=O)CN(C)C(=O)[C@@H](Cc3ccccc3)NC(=O)[C@H](Cc3ccc(O)cc3)N(C)C(=O)COc3cccc2c3)cc1OC [Compound 1570] |  |  |  | medium | medium
COc1ccc(CC[C@H]2OC(=O)[C@@H]3CCCCN3C(=O)C(=O)C(C)(C)COC(=O)C=CCCN(C)C(=O)[C@@H](Cc3ccccc3)NC(=O)CN(C)C(=O)[C@@H](Cc3ccccc3)NC(=O)[C@H](Cc3ccc(O)cc3)N(C)C(=O)COc3cccc2c3)c(F)c1OC [Compound 1571] |  |  |  | low | low
COc1ccc(CC[C@H]2OC(=O)[C@@H]3CN(C(=O)OCC4c5ccccc5-c5ccccc54)CCN3C(=O)C(=O)C(C)(C)COC(=O)C=CCCN(C)C(=O)[C@@H](Cc3ccccc3)NC(=O)CN(C)C(=O)[C@@H](Cc3ccccc3)NC(=O)[C@H](Cc3ccc(O)cc3)N(C)C(=O)COc3cccc2c3)cc1OC [Compound 1572] |  |  |  | low | low
COc1ccc(CC[C@H]2OC(=O)[C@@H]3CNCCN3C(=O)C(=O)C(C)(C)COC(=O)C=CCCN(C)C(=O)[C@@H](Cc3ccccc3)NC(=O)CN(C)C(=O)[C@@H](Cc3ccccc3)NC(=O)[C@H](Cc3ccc(O)cc3)N(C)C(=O)COc3cccc2c3)cc1OC [Compound 1573] |  |  |  | low | low
COc1ccc(CC[C@H]2OC(=O)[C@@H]3CN(C)CCN3C(=O)C(=O)C(C)(C)COC(=O)C=CCCN(C)C(=O)[C@@H](Cc3ccccc3)NC(=O)CN(C)C(=O)[C@@H](Cc3ccccc3)NC(=O)[C@H](Cc3ccc(O)cc3)N(C)C(=O)COc3cccc2c3)cc1OC [Compound 1574] |  |  |  | low | low
COc1ccc(CC[C@H]2OC(=O)[C@@H]3CCCCN3C(=O)C(=O)C(C)(C)COC(=O)C=CCCN(C)C(=O)[C@@H](Cc3ccccc3)NC(=O)CN(C)C(=O)[C@@H](Cc3ccccc3)NC(=O)[C@H](Cc3ccc(O)cc3)N(C)C(=O)COc3ccc(F)c2c3)cc1OC [Compound 1575] |  |  |  | low | low
COc1ccc(CC[C@H]2OC(=O)[C@@H]3CCCCN3C(=O)C(=O)C(C)(C)COC(=O)C=CCCN(C)C(=O)[C@@H](Cc3ccccc3)NC(=O)CN(C)C(=O)[C@@H](Cc3ccccc3)NC(=O)[C@H](Cc3ccc(O)cc3)N(C)C(=O)COc3cc(F)cc2c3)cc1OC [Compound 1576] |  |  |  | medium | medium
COc1ccc(CC[C@H]2OC(=O)[C@@H]3CCCCN3C(=O)C(=O)C(C)(C)COC(=O)C=CCCN(C)C(=O)[C@@H](Cc3ccccc3)NC(=O)CN(C)C(=O)[C@@H](Cc3ccccc3)NC(=O)[C@H](Cc3ccc(O)cc3)N(C)C(=O)COc3cccc2c3)c(OC)c1OC [Compound 1577] |  |  |  | medium | medium
COc1ccc(CC[C@H]2OC(=O)[C@@H]3CCCCN3C(=O)C(=O)C(C)(C)COC(=O)C=CCCN(C)C(=O)[C@@H](Cc3ccccc3)NC(=O)CN(C)C(=O)[C@@H](Cc3ccccc3)NC(=O)[C@H](Cc3ccc(O)cc3)N(C)C(=O)COc3cc2ccc3F)cc1OC [Compound 1578] |  |  |  | low | low
COc1ccc(CC[C@H]2OC(=O)[C@@H]3CCCCN3C(=O)C(=O)C(C)(C)COC(=O)C=CCCN(C)C(=O)[C@@H](Cc3ccccc3)NC(=O)CN(C)C(=O)[C@@H](Cc3ccccc3)NC(=O)[C@H](Cc3ccc(O)cc3)N(C)C(=O)COc3cccc2c3F)cc1OC [Compound 1579] |  |  |  | medium | medium
COc1ccc(CC[C@H]2OC(=O)[C@@H]3CCCCN3C(=O)C(=O)C(C)(C)COC(=O)C=CCCN(C)C(=O)[C@@H](Cc3ccccc3)NC(=O)CN(C)C(=O)[C@@H](Cc3ccccc3)NC(=O)[C@H](Cc3ccc(O)cc3)N(C)C(=O)COc3cncc2c3)cc1OC [Compound 1580] |  |  |  | low | low
COc1cc(OC)c(OC)cc1CC[C@H]1OC(=O)[C@@H]2CCCCN2C(=O)C(=O)C(C)(C)COC(=O)C=CCCN(C)C(=O)[C@@H](Cc2ccccc2)NC(=O)CN(C)C(=O)[C@@H](Cc2ccccc2)NC(=O)[C@H](Cc2ccc(O)cc2)N(C)C(=O)COc2cccc1c2 [Compound 1581] |  |  |  | medium | medium
COc1cc(CC[C@H]2OC(=O)[C@@H]3CCCCN3C(=O)C(=O)C(C)(C)COC(=O)C=CCCN(C)C(=O)[C@@H](Cc3ccccc3)NC(=O)CN(C)C(=O)[C@@H](Cc3ccccc3)NC(=O)[C@H](Cc3ccc(O)cc3)N(C)C(=O)COc3cccc2c3)c(OC)c(OC)c1 [Compound 1582] |  |  |  | low | low
COc1ccc(OC)c(OC)c1CC[C@H]1OC(=O)[C@@H]2CCCCN2C(=O)C(=O)C(C)(C)COC(=O)C=CCCN(C)C(=O)[C@@H](Cc2ccccc2)NC(=O)CN(C)C(=O)[C@@H](Cc2ccccc2)NC(=O)[C@H](Cc2ccc(O)cc2)N(C)C(=O)COc2cccc1c2 [Compound 1583] |  |  |  | low | low
COc1ccc(CC[C@H]2OC(=O)[C@@H]3CCCCN3C(=O)C(=O)C(C)(C)COC(=O)C=CCCN(C)C(=O)[C@@H](Cc3ccccc3)NC(=O)CN(C)C(=O)[C@@H](Cc3ccccc3)NC(=O)[C@H](Cc3ccc(O)cc3)N(C)C(=O)COc3cccc2c3)c(O)c1OC [Compound 1584] |  |  |  | low | low
COc1ccc(CC[C@H]2OC(=O)[C@@H]3CCCCN3C(=O)C(=O)C(C)(C)COC(=O)C=CCCN(C)C(=O)[C@@H]3CCCN3C(=O)[C@H](COC(C)(C)C)N(C)C(=O)[C@@H](c3ccccc3)NC(=O)[C@H](C)N(C)C(=O)COc3cc(F)cc2c3)cc1OC [Compound 1595] |  |  |  |  | Low (“Low” indicates a response greater than 0.6 times the activity relative to DMSO)
COc1ccc(CC[C@H]2OC(=O)[C@@H]3CCCCN3C(=O)C(=O)C(C)(C)COC(=O)C=CCCN(C)C(=O)[C@@H]3CCCN3C(=O)[C@H](COC(C)(C)C)N(C)C(=O)[C@H](c3ccccc3)NC(=O)[C@H](C)N(C)C(=O)COc3cc(F)cc2c3)cc1OC [Compound 1596] |  |  |  |  | Low (“Low” indicates a response greater than 0.6 times the activity relative to DMSO)
